Consider 5 molecules from PMC8036603, “Small Molecule Inhibitors of White Spot Syndrome Virus: Promise in Shrimp Seedling Culture” (International Journal of Molecular Sciences, 2021).

Like-named read-outs stand apart in the source and are kept apart here.

Series [1] concerns white spot syndrome virus (WSSV). To be noted: cited from earlier work.
For series [2] the test system is unchanged. The series is described as follows: Anti-WSSV activity in shrimp larvae, co-incubation, copy number of viral genome by RT-qPCR. Type of series: in vivo, Litopenaeus vannamei. Particulars: for EC50: Whispovirus xiabaidian, 72 h, read-out: EC50 (mg/L; 95% CI), median effective concentration, WSSV-infected larvae, copy number of viral genome, 95% CI in brackets; for inhibitory efficiency on WSSV replication: six-point dose-response, viral genome copy number in larvae.

Series [3] can be described thus: Solubility / precipitation in aquacultural water. Type of series: physicochemical. Particulars: for lowest precipitation concentration / lowest precipitation concentration (bracketed value in LC50 48 h column) / lowest precipitation concentration (bracketed value in LC50 72 h column): test range 0.4~100 mg/L, aquacultural water, LC50 NONE. As for the experimental part: Prior to evaluation of the anti-WSSV activity of coumarins, the safety doses for larvae needed to be determined. […] In contrast, the electron-withdrawing group was more toxic than the electron-donating group, with the LC50 of A5‒A8 being <5 mg/L at 72 h. […] Based on preliminary analysis of the structure-activity relationship (SAR) of similar spatial structures with different substituents of electron-donating and electron-withdrawing groups to coumarins A1, B1, and C1, we considered that […] of compounds; this provides a basis for further research.
All conventional reagents and solvents are purchased directly from commercial companies and no further purification is required. Organic solvents were purchased from Sinopharm chemical reagent Co., Ltd. and purified by distillation and moisture was excluded from the glass apparatus using CaCl2 drying tubes. Throughout this study, silica gel H (200–300 mesh; Qingdao Marine Chemical Factory, Qingdao, China) was used for the column chromatography. For thin layer chromatographic (TLC) plates, Silica gel (GF254) (Qingdao Marine Chemical Factory, Qingdao, China) were used for thin layer chromatographic (TLC) analysis, and all of the spots and bands were detected by UV irradiation (254, 365 nm). The intermediates and products were characterized by electrospray ionization mass spectrometry (TripleTOF5600þ; AB SCIEX Pte. Ltd., Boston, MA, USA), ^1H NMR and ^13C NMR (Bruker AM500 spectrometer; Bruker Corporation, Berne, Switzerland). The derivatives were dissolved in 100% dimethyl sulfoxide (DMSO; Beyotime Biotechnology, Haimen, China), stored at 4 °C prior to antiviral evaluation, and used within 6 months. For solubility, the stock solutions, at a concentration of 50 mg/mL, were sonicated for approximately 10 min to ensure that the derivatives were fully dissolved and mixed.

The subject of series [4] is Shrimp (L. vannamei) larvae. The series is described as follows: Acute toxicity assay in shrimp larvae. The class given is in vivo, Litopenaeus vannamei. Particulars: after 72 h of exposure. As for the experimental part: Shrimp (L. vannamei) larvae (total length: 0.5 ± 0.04 cm, body weight: 4.2 ± 0.4 mg, mean ± SD) were provided by Zhejiang Mariculture Research Institute Qingjiang Station (Wenzhou, China). The larvae were maintained in a culture pond at 28 °C, fed four times a day with commercial feed pellets, and collected randomly for PCR testing to verify the WSSV-free status prior to the trial.
Acute toxicity of the coumarin derivatives was investigated by exposing larvae to a range of compound concentrations, from 0.1 mg/L to 100 mg/L of coumarin derivatives, where the dose setting was based on the data from preliminary tests in our laboratory. A DMSO-control (2%, v/v, the highest percentage of DMSO in treatments) served as the control. During the experiment, every 20 larvae were moved into six-well plates filled with 6 mL/per well freshly prepared test solutions for a 72-h incubation at 28 °C with a natural photoperiod. […] To avoid deterioration of water quality, dead shrimps were immediately removed at the point of observation. Three replicate experiments were performed.
Compound response curves were represented by a logistic sigmoidal function with a maximal effect level (Amax) and Hill coefficient representing the sigmoidal transition (Origin 8.1; http://www.originlab.com, accessed on 25 March 2021). Statistical analyses were performed using SPSS (version 18.0) statistical software (SPSS Inc., Chicago, IL, USA). The LC50 and EC50 values with 95% CIs were calculated using probit analysis. Virus titers were log10-transformed prior to statistical analyses. Unpaired Student’s t-tests were used to compare coumarin-treated samples and negative-control DMSO samples for determining significance and data are presented as mean values ± SD.

Regarding `C=CCN1C(=O)S/C(=C\c2ccc(-c3ccccc3)o2)C1=O` [LJ025], in series [1], the “half-life in aquaculture water” value is recorded as “less than 2 days”.

In the case of `O=c1oc2ccccc2c2c1C(c1ccc(O)cc1)NC(=S)N2` (stereo not shown) [B4, 4-(4-hydroxyphenyl)-2-thioxo-1,2,3,4-tetrahydro-5H-chromeno[4,3-d]pyrimidin-5-one], in series [2], the EC50 was found to be 22.6 mg/L and the “inhibitory efficiency on WSSV replication” value (from here on “inhibitory efficiency”) is “exceeded 90%”. For the same molecule, in series [3], the “lowest precipitation concentration” value was “NONE (50) mg/L”, the “lowest precipitation concentration (bracketed value in LC50 48 h column)” value was “NONE (50) mg/L” and the “lowest precipitation concentration (bracketed value in LC50 72 h column)” value was “NONE (50) mg/L”.

In the case of `N#CC1=C(N)Oc2c(c(=O)oc3ccccc23)C1c1ccc(F)cc1` (stereo not shown) [C5], in series [2], the EC50 was 8.82 mg/L and the “inhibitory efficiency” value is listed as “exceeded 90%”. Also, the “signs of toxicity at the saturation concentration” value in series [4] is listed as “No signs of toxicity were observed”. For the same molecule, in series [3], the “lowest precipitation concentration” value is on record as “NONE (16) mg/L”, the “lowest precipitation concentration (bracketed value in LC50 48 h column)” value was “NONE (16) mg/L” and the “lowest precipitation concentration (bracketed value in LC50 72 h column)” value is listed as “NONE (16) mg/L”. The “solubility in aquacultural water” value in series [3] (tested concentration 16 mg/L, 28 °C) is “insoluble”.

As for `C=CCN1C(=O)/C(=C/c2ccc(-c3ccccc3)o2)SC1=S` [LJ001], the “half-life in aquaculture water” value in series [1] is given as “less than 2 days”.

With `N#CC1=C(N)Oc2c(c(=O)oc3ccccc23)C1c1ccc([N+](=O)[O-])cc1` (stereo not shown) [C8], the “half-life in aquacultural and sterilized deionized water” value in series [1] (buffer) is 24 to 48 h. In addition, in series [2], the EC50 was 6.6 mg/L and the “inhibitory efficiency” value is “exceeded 90%”. The “signs of toxicity at the saturation concentration” value in series [4] was “No signs of toxicity were observed”. Further, in series [3], the “solubility in aquacultural water” value is given as “insoluble”, the “lowest precipitation concentration” value is “NONE (16) mg/L”, the “lowest precipitation concentration (bracketed value in LC50 48 h column)” value was “NONE (16) mg/L” and the “lowest precipitation concentration (bracketed value in LC50 72 h column)” value was “NONE (16) mg/L”.
